The text below walks through data of the SangsterLogP compilation.

Molecules are shown by their SMILES.

The data set can be described thus: method code SF-AS, from DOI: 10.1135/cccc19851642.
As for `CCC(C)NC(=O)C=Cc1ccc([N+](=O)[O-])o1` (stereo not given), the logP – broadly, a log measure of how a compound divides between an organic and an aqueous phase – stood at 2.28. Take `CCCCCOC(=O)C=Cc1ccc([N+](=O)[O-])o1`: the lipophilicity (logP) is 3.4. Next, `COC(=O)C(C#N)=Cc1ccc(I)o1`: 2.75; `CCCCNC(=O)C=Cc1ccc([N+](=O)[O-])o1`: 2.36. Next, `CC(C)(C)CNC(=O)C=Cc1ccc([N+](=O)[O-])o1`: 2.61; `CC(C)NC(=O)/C=C/c1ccc([N+](=O)[O-])o1`: 1.8.

Compound `CCNC(=O)C=Cc1ccc([N+](=O)[O-])o1` came in with a lipophilicity (logP) of 1.39.

`COC(=O)/C(C#N)=C/c1ccc(SC)o1` yielded a lipophilicity (logP) of 2.61. `CCCOC(=O)C=Cc1ccc([N+](=O)[O-])o1` had a logP of 2.67. Regarding `COC(=O)C(C#N)=Cc1ccc(Br)o1`, the logP was 2.41. Next, `CN(C)C(=O)/C=C/c1ccc([N+](=O)[O-])o1`: 0.82; `CCCCOC(=O)C=Cc1ccc([N+](=O)[O-])o1`: 2.83. Next, `CC(C)CNC(=O)C=Cc1ccc([N+](=O)[O-])o1`: 2.23; `O=C(O)/C=C/c1ccc([N+](=O)[O-])o1`: 0.68; `CCCCCCCCCCCC(C)NC(=O)C=Cc1ccc([N+](=O)[O-])o1` (stereo not given): 3.7. `CNC(=O)C=Cc1ccc([N+](=O)[O-])o1` gave a logP of 0.98.

On to `O=[N+]([O-])/C=C/c1ccc([N+](=O)[O-])o1`, for which the logP amounted to 1.3. Next, `CCOC(=O)/C=C/c1ccc([N+](=O)[O-])o1`: 2.1; `CSc1ccc(C=C(C#N)C#N)o1`: 2.45; `CC(C)(C)OC(=O)C=Cc1ccc([N+](=O)[O-])o1`: 3.09. The value for `CCC(C)OC(=O)/C=C/c1ccc([N+](=O)[O-])o1` (stereo not given) was 3.09; that for `N#CC(C#N)=Cc1ccc(I)o1` was 2.42; that for `CCCNC(=O)C=Cc1ccc([N+](=O)[O-])o1` was 1.86. As for `CC(C)COC(=O)/C=C/c1ccc([N+](=O)[O-])o1`, the logP is 3.14.

On to `CC(C)(C)NC(=O)C=Cc1ccc([N+](=O)[O-])o1`, for which the logP turned out to be 2.33. Turning to `NC(=O)/C=C/c1ccc([N+](=O)[O-])o1`, the logP turned out to be 0.65. The compound `CCOC(=O)C(=Cc1ccc([N+](=O)[O-])o1)C(=O)OCC` came in with a logP of 2.5. Take `O=[N+]([O-])c1ccc(C=CBr)o1`: the logP was found to be 2.45. Turning to `COC(=O)/C(C#N)=C/c1ccc(C)o1`, the logP turned out to be 2.09.

Regarding `CC(C)OC(=O)/C=C/c1ccc([N+](=O)[O-])o1`, the lipophilicity (logP) was 2.64.
